Experiment [1] has as its target T1, CRM1^HA (Mus musculus, UniProt Q6P5F9, L431A/V430A/V432A).
T1 construct: His-ZZ (cleaved yes); made in house; host or cells: Escherichia coli BL21-CodonPlus (DE3)
Nature of the experiment: Isothermal titration calorimetry, CRM1^HA / NES. It counts as binding. As to conditions: for binding response: titrated onto CRM1^HA, result in words. The protocol: Isothermal titration calorimetry (ITC)
ITC measurements were carried out using a VIP-ITC MicroCalorimeter (MicroCal, Inc., Northampton, MA). TFP and YFP constructs, as well as CRM1^HA, were dialyzed in a buffer containing 20 mM HEPES, pH 7.4, 50 mM NaCl, 1 mM TCEP, 1 mM MgCl2, and degassed prior to the experiment. Untagged peptides (AS: QDLCLAVEEVSLRK, AL: EAIQDLCLAVEEVSLRK, ES: QDLWQSLAQVSLRK and EL: EAIQDLWQSLAQVSLRK), N-acetylated and 95% pure, were purchased from Proteogenix (Schiltigheim, France) and resuspended in the ITC buffer. Measurements were performed at 20°C. TFP-NES, YFP-NES or NES peptides at 35–180 μM were titrated onto CRM1^HA at 2–14 μM. Injections of 6 μL were performed at 320 seconds interval (the first injection always was of 1 μL and is not considered in data analysis). To determine the thermodynamic parameters of NPM / importin interaction, importin α, importin Δα or importin α/β at 45–60 μM were titrated onto NPM (1–1.2 μM pentamer) in 50 mM Tris/HCl, pH 7.5, 100 mM NaCl, 2 mM TCEP, and 10% glycerol. […] “Reverse” titrations, where 20–30 μM NPM was titrated onto 7–10 μM of the different importins were also performed and yielded similar results.
The reaction heat of each injection is related to the calorimetric enthalpy of binding, ΔH^0. The binding isotherms, ΔH^0 vs. molar ratio, were analyzed with an independent binding sites model using MicroCal Origin software. The fit of the binding curve yields the binding constant KA (KD = 1/KA) and the enthalpy ΔH^0 of the binding reaction. The Gibbs free energy of binding ΔG^0 and the entropy ΔS^0 are determined from the basic thermodynamic expressions: ΔG^0 = -RTlnKA = ΔH^0−TΔS^0, where R and T are the gas constant and the absolute temperature, respectively.
Fig 5 Analysis of CRM1^HA/TFP-NES interaction by ITC. Isothermal titration of CRM1^HA with TFP-mutE(NES). […] The titration of negative control TFP-Cter (180 μM) onto CRM1^HA (14 μM) (circles) is also shown for comparison.
(Isothermal titration calorimetry measures the heat released or taken up as one component is titrated into another.)

Experiment [2] has as its target T1, CRM1^HA. Nature of the experiment: Fluorescence anisotropy binding assay, CRM1^HA. As to conditions: 0–60 μM CRM1^HA, 25°C. As for the experimental part:
Fluorescence anisotropy binding assays
To estimate CRM1 binding affinities for NES motifs we monitored binding with a fluorescence-polarization assay based on previously described approaches. The increase in fluorescence anisotropy of TFP/YFP when the TFP/YFP-NES construct (50 nM) binds to 0–60 μM CRM1 (either CRM^HA or wild type) was recorded at 25°C with a 8100 SLM-Aminco spectrofluorometer in buffer 20 mM Tris/HCl, pH 7.4, 50 mM NaCl, 5 mM DTT, 2 mM MgCl2. Excitation and emission wavelengths were 463, 500 nm for TFP and 463, 533 nm for YFP, and slits width 4 and 8 nm, respectively.
Fig 4 Binding of CRM1 to TFP-NES constructs. (A) Scheme of the engineered TFP constructs, showing the sequence of the NES motifs. Φ residues are highlighted in red. (B) Titration of CRM1 onto the different TFP constructs (50 nM), at 25°C, in buffer 20 mM Tris/HCl, pH 7.4, 50 mM NaCl, 5 mM DTT, 2 mM MgCl2: Left panel: Binding of CRM1^HA (solid symbols) or wild type CRM1 (empty symbols) to TFP-PKI(NES). Right panel: Binding of CRM1^HA to TFP-mutE(NES) (triangles) and TFP-mutA(NES) (squares). Fraction bound was calculated from the relative increase in fluorescence anisotropy of TFP (λexc 463 nm, λem 500 nm). Error bars correspond to at least three measurements per CRM1 concentration.
We next used the TFP-(NES) constructs to monitor CRM1^HA binding to each motif, using the change in fluorescence anisotropy upon complex formation as a readout (Fig 4B), as previously described. […] The different nature of the fluorescent tag, and/or the linker between the fluorescent protein and the NES (2 residues longer in the YFP-PKI construct) could explain the discrepancy. […] To isolate the CRM1 / NES interaction under study from the influence of the tag protein, we have also conducted binding assays with peptides corresponding to the NES motifs (see below).

For experiment [3], the system named is nuclear export. As to conditions: in vivo nuclear export assay; cited from earlier work. The text has this:
Two sequence motifs in the core domain of NPM (residues 42–61 and 94–102) (Fig 1) have been investigated as candidate NESs. In addition, we have detected a further putative NES in the C-terminal region (see below). However, it is still unclear to what extent any of these sequences represents NPM physiological NESs. […] It is therefore not surprising that NPM deregulation is associated to cancer. NPM is overexpressed in several solid tumors (such as gastric, colon, ovarian, prostate cancer). In addition, small insertions and translocations affecting NPM1 gene, encoding NPM, are characteristic of certain hematological disorders. In fact, NPM1 is the most frequently mutated gene in adult acute myeloid leukemia (AML). […] The higher affinity of mutE(NES) for CRM1^HA is consistent with its stronger export activity previously observed using in vivo nuclear export assays. […] Thus, the ranking of in vitro CRM1^HA affinity (PKI(NES) (KD 579 n ...

In experiment [4] the test system is Myc-NPM in HEK293T cells. Put plainly: Localization of Myc-NPM in HEK293T cells. It is filed as cell-based, human. As to conditions: YFP-CRM1 co-expression and ActD (5 μg/mL, 3 h), >200 cells counted. As for the experimental part: (§1) Cell culture, transfection, treatment and imaging
(§2) Human embryonic kidney 293T (HEK293T) and HeLa cells (ECACC) were grown in Dulbecco’s modified Eagle’s medium, supplemented with 10% fetal bovine serum, 100 units/ml penicillin and 100 μg/ml streptomycin (all from Invitrogen). The cells were seeded onto sterile glass coverslips in 12-well trays 24 h before transfection. Transfections were carried out with XtremeGENE 9 (Roche) following the manufacturer’s protocol. Treatment of cells with the different drugs was done at the indicated final concentrations and time periods: Actinomycin D (ActD, Sigma) at 5 μg / mL for 3 h, and hydroxyurea (HU, Sigma) at 4 mM for 24 h.
Cells were fixed, either 20 or 42 h after transfection, with 3.7% formaldehyde in PBS for 30 min, then treated with 0.2% Triton X-100 in PBS for 10 min, for membrane permeabilization and incubated for 1 h in blocking solution (3% BSA in PBS). In YFP-CRM1 overexpression experiments, endogenous NPM was detected with anti-B23 (Santa Cruz Biotechnology FC82291, dilution 1:800), Myc3-NPM with anti-Myc (Cell Signalling 2276, dilution 1:2000) and Flag-SurvNLS with anti-Flag (Sigma F1704, dilution 1:300). Primary antibodies were diluted in blocking solution. In all cases, the secondary antibody was Alexa Fluor 594 anti-mouse (Invitrogen A11005, dilution 1:400). […] Slides were examined using a Zeiss Axioskop fluorescence microscope. […]

Experiment [5] relates to endogenous NPM in HEK293T cells. Nature of the experiment: Localization of endogenous NPM in HEK293T cells. It is filed as cell-based, human. As for the experimental part:
as §1, §2
Cells were fixed, either 20 or 42 h after transfection, with 3.7% formaldehyde in PBS for 30 min, then treated with 0.2% Triton X-100 in PBS for 10 min, for membrane permeabilization and incubated for 1 h in blocking solution (3% BSA in PBS). In YFP-CRM1 overexpression experiments, endogenous NPM was detected with anti-B23 (Santa Cruz Biotechnology FC82291, dilution 1:800), Myc3-NPM with anti-Myc (Cell Signalling 2276, dilution 1:2000) and Flag-SurvNLS with anti-Flag (Sigma F1704, dilution 1:300). Primary antibodies were diluted in blocking solution. In all cases, the secondary antibody was Alexa Fluor 594 anti-mouse (Invitrogen A11005, dilution 1:400). Washing between the different steps were carried out with PBS. […] Slides were examined using a Zeiss Axioskop fluorescence microscope. For quantification, at least 200 cells were “blind counted” and classified as having nuclear (or nucleolar), nuclear/cytoplasmic or cytoplasmic localization of NPM (or the Flag-SurvNLS control). […]
Fig 2 Localization of endogenous and ectopically expressed NPM and effect of treatment with actinomycin D (ActD) and CRM1 overexpression in HEK293T cells. […] Green denotes YFP (Y) or YFP-CRM1 (YC) fluorescence; red, immunostaining of endogenous NPM; and blue, DAPI fluorescence. […] More than 200 cells were “blind” counted. […] (D) Quantification of cytoplasmic (C) or nuclear and cytoplasmic (N/C) localization of overexpressed Flag-SurvNLS and Myc-NPM. […]

[6] abbreviates: ITC, NES ligand (35–180 μM) titrated onto CRM1^HA (2–14 μM), 20°C, 20 mM HEPES pH 7.4, 50 mM NaCl, 1 mM TCEP, 1 mM MgCl2, independent binding sites model, read-out: KD.
Where [7] appears, read: TFP/YFP-NES construct 50 nM, 20 mM Tris/HCl pH 7.4, 50 mM NaCl, 5 mM DTT, 2 mM MgCl2, at least three measurements per CRM1 concentration, read-out: apparent KD (C50).

Here are results for eleven compounds from PMC4474691, “Leukemia-Associated Mutations in Nucleophosmin Alter Recognition by CRM1: Molecular Basis of Aberrant Transport” (PLoS ONE, 2015).

*1 amine or outer side, *2 acyl side, *3 side chain or, on linkers, in order; H or OH if unused. Where a SMILES comes first, the peptide text is derived from it. Bridges are numbered along the chain shown (N, C = ends). Roman numbers before positions name the chains, in order. Where no end group is shown, it is not given here. [ ]: non-standard residue; d: D form. Actinocin(9to1) = Cc1c2oc3c(C)ccc(C(=O)[*:1])c3nc-2c(C(=O)[*:2])c(N)c1=O; NMeV = CN[C@H](C(=O)O)C(C)C; Sar = CNCC(=O)O

T1 sequence (Q6P5F9 1-1062 V430A/L431A/V432A limits assumed): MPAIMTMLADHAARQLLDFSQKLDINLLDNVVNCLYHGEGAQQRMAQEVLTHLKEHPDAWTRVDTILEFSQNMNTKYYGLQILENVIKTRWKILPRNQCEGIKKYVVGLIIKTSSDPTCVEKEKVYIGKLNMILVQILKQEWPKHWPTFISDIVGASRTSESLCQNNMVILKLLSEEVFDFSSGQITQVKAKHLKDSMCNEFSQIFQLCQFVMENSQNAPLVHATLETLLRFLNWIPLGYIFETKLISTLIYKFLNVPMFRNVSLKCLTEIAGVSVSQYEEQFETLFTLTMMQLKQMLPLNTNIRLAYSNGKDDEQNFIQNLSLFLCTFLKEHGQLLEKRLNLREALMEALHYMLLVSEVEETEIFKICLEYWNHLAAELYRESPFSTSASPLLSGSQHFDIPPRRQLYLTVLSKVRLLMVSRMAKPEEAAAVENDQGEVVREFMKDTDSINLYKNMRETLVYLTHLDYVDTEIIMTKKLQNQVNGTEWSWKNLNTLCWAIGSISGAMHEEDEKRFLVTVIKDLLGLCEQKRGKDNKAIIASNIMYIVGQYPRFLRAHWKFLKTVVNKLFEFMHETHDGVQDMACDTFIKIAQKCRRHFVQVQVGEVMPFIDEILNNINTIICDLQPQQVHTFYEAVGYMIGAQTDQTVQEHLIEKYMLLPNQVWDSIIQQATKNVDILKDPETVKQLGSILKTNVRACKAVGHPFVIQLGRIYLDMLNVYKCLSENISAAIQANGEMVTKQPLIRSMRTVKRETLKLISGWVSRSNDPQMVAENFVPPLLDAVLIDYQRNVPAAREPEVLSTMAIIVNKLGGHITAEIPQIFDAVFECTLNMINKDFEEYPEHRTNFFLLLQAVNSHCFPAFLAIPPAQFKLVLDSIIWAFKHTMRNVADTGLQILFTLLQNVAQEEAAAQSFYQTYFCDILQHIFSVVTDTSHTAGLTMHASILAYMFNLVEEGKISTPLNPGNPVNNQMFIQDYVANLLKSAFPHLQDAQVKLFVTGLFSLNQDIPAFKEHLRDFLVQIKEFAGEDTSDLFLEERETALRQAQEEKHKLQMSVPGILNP

Turning to Ac-QDLWQSLAQVSLRK [peptide ES], the Kd in experiment [1] (setting [6]) was determined as 76 ± 1 nM.

In the case of “DLWQWRKSL [TFP-Cter, negative control construct containing the last 9 C-terminal residues of wild type NPM]”, in experiment [1] (ITC, 20°C, 20 mM HEPES pH 7.4), the binding response entry is recorded as “small exothermic peaks (Fig 5), which may reflect a non-specific binding”.

For the compound “LALKLAGLDI [PKI(NES), in b48 the value is that of TFP-PKI(NES), reference compound]”, in experiment [2] (setting [7]), the Kd amounted to 579 nM.

Take “DLWQSLAQVSLRK [TFP-mutE(NES), NES of NPM mutant E as C-terminal fusion to teal fluorescent protein]”: the Kd in experiment [1] (setting [6]) is 1040 ± 41 nM; in experiment [1] (ITC, TFP-NES titrated onto CRM1^HA, 20°C, 20 mM HEPES pH 7.4, rounded, read-out: KD), 1000 nM; in experiment [2] (TFP-NES 50 nM, pH 7.4, rounded, read-out: apparent KD), 2200 nM; in experiment [2] (setting [7]), 2160 ± 556 nM. In experiment [1] (ITC, NES ligand titrated onto CRM1^HA, 20°C, 20 mM HEPES pH 7.4), this compound came in with a ΔH of -15.4 ± 3.1 kcal/mol. Also, the “-TΔS” value in experiment [1] (ITC, NES ligand titrated onto CRM1^HA, 20°C, 20 mM HEPES pH 7.4, from ΔG = ΔH − TΔS) turned out to be 7.4 ± 3.1 kcal/mol. Moreover, in experiment [1] (ITC, NES ligand titrated onto CRM1^HA, 20°C, 20 mM HEPES pH 7.4, low n of peptides might result from limited solubility), the “n (binding stoichiometry)” value worked out at 0.80 ± 0.19. Also, the ΔG in experiment [1] (ITC, NES ligand titrated onto CRM1^HA, 20°C, 20 mM HEPES pH 7.4, ΔG = -RTlnKA) is given as -8.0 ± 0.0 kcal/mol.

For “DLWQSLAQVSLRK [mutE(NES), acquired NES motif of AML-associated NPM mutant E]”, in experiment [1] (anisotropy, ITC with TFP constructs and ITC with untagged peptides), the “relative affinity for CRM1^HA, mutant E NES vs mutant A NES” value was “approximately double that of mutant A”. For the same compound, the “NES export activity in cells” value in experiment [3] was “much higher than that of mutant A NES, and comparable to the export activity of PKI(NES)”.

On to “94–102: candidate NES motif in the core domain of NPM (ITPPVVLRL; UniProt P06748 94-102, looked up, fragment)”, for which, in experiment [3], the “NES export activity in cells” value is listed as “border-line activity”.

In experiment [1], Ac-EAIQDLCLAVEEVSLRK [peptide AL] yielded a Kd of 57 ± 10 nM.

For “QDLCLAVEEVSLRK [peptide AS, short version of the NES motif of mutant A]”, in experiment [1] (ITC, 20°C, 20 mM HEPES pH 7.4), the binding response result is recorded as “showed no binding in our conditions”.

Turning to `Cc1c2oc3c(C)ccc(C(=O)N[C@@H]4C(=O)N[C@H](C(C)C)C(=O)N5CCC[C@H]5C(=O)N(C)CC(=O)N(C)[C@@H](C(C)C)C(=O)O[C@@H]4C)c3nc-2c(C(=O)N[C@@H]2C(=O)N[C@H](C(C)C)C(=O)N3CCC[C@H]3C(=O)N(C)CC(=O)N(C)[C@@H](C(C)C)C(=O)O[C@@H]2C)c(N)c1=O` [ActD, actinomycin D] (I: T[dV]P[Sar][NMeV] / II: T[dV]P[Sar][NMeV]; ester I:1-I:C, II:1-II:C; linker I:N-II:N via Actinocin(9to1)), the “cells with nuclear/cytoplasmic localization of Myc-NPM” value in experiment [4] was 33%. For the same compound, the “cytoplasmic localization of endogenous NPM” value in experiment [5] (HEK293T expressing YFP-CRM1, ActD 5 μg/mL 3 h where ActD) is “a further increase was observed”. The “nuclear/cytoplasmic localization of endogenous NPM” value in experiment [5] (YFP-transfected HEK293T, ActD 5 μg/mL 3 h, no CRM1 overexpression) was “does not affect, however, the amount of cells displaying nuclear/cytoplasmic localization of NPM”.

Turning to “residues 42–49: candidate NES motif in the core domain of NPM (LSLRTVSL; UniProt P06748 42-49, looked up, fragment)”, in experiment [3], the “NES export activity in cells” value is recorded as “border-line activity”.

Consider Ac-EAIQDLWQSLAQVSLRK [peptide EL], for which the Kd in experiment [1] (setting [6]) is 31 ± 1 nM.
